≈ marks a conversion by molar mass, not a printed value.
Columns and labels:
Ant (Lasius niger) = assay: Insect repellency against ants, half-treated vinyl tiles; format: in vivo
Experimental: (§1) Compound 1 was tested for insect repellency against mosquitoes and ants. In all cases, repellency is calculated with reference to an untreated surface having 0% repellency.
Ant test is completed with a simplified general purpose cleaner formulation: […]
This product is applied to the floor tiles (vinyl) at the rate of 20 g·m^−2.
Ant (Lasius niger) 300 mm square vinyl tiles half treated with 0.9 ml test material and left for 2 hours. Glass arena 250 mm square, 75 mm high and fluon coated, open to air. Arena illuminated from 1.0 m above by four 18 W fluorescent lamps. 50 black ants per arena counted every 5 minutes. Arena turned 180 degrees every 10 minutes. Any ants injured or escaping replaced. Mosquito (Aedes aegyptii) A perspex box approx 18 inch cube, with sleeved circular entry was used as the test cage. The box contained 5 day old, mated honey fed females. The area of arm to be tested was measured. The test material was applied from ethanol solution at a rate of 0.2 mg test material per square centimetre. A similar area of the other arm was used for the control. A pair of disposable gloves was worn on the hands throughout the test. In turn each arm was inserted into the cage for 30 seconds. This was repeated 3 times. The number of mosquitoes landing on the arm was recorded every five seconds. […]

[1] = system: Mosquito (Aedes aegyptii); assay: Insect repellency against mosquitoes, treated arm in cage; format: in vivo
Experimental: as §1
Ant (Lasius niger) 300 mm square vinyl tiles half treated with 0.9 ml test material and left for 2 hours. Glass arena 250 mm square, 75 mm high and fluon coated, open to air. Arena illuminated from 1.0 m above by four 18 W fluorescent lamps. 50 black ants per arena counted every 5 minutes. Arena turned 180 degrees every 10 minutes. Any ants injured or escaping replaced. Mosquito (Aedes aegyptii) A perspex box approx 18 inch cube, with sleeved circular entry was used as the test cage. The box contained 5 day old, mated honey fed females. The area of arm to be tested was measured. The test material was applied from ethanol solution at a rate of 0.2 mg test material per square centimetre. A similar area of the other arm was used for the control. A pair of disposable gloves was worn on the hands throughout the test. In turn each arm was inserted into the cage for 30 seconds. This was repeated 3 times. The number of mosquitoes landing on the arm was recorded every five seconds. As penetration of the skin occurs within 5 seconds the arm was flicked at this frequency to dislodge the flies.

[2] = system: Staphylococcus aureus ATCC 6538; assay: Minimum Inhibitory Concentration (MIC); format: cell-based; conditions: for MIC: ATCC6538, Staphylococcus aureus ATCC 6538, change in absorbance <0.2 A540; for activity against Staphylococcus aureus (in words): summary statement
Experimental: One property that characterises the effectiveness of a compound or composition to inhibit the growth of bacteria, is the minimum inhibitory concentration, or MIC, of the compound or composition. The MIC is defined as the minimum amount of a compound or composition (e.g. in ppm) at which little or no bacterial growth is observed. […] The minimum inhibitory concentration of a compound was determined by the following method. A culture of the test strains of bacteria Staphylococcus aureus ATCC 6538 (American Type Culture Collection, P.O. Box 1549, Manassas, Va. 20108, USA) was incubated for 16-24 hours, in a shaken flask at 37° C. The cultures was then diluted in sterile 0.1% TSB (Oxoid, Basingstoke, UK) to give a concentration of bacteria of approximately 10^6 colony forming units (cfu) per ml. Fragrance compounds were prepared in sterile TSB to give stock solutions with final concentrations of 40,000 ppm. The absorbance at 540 nm (hereinafter referred to for brevity and simplicity as “A540”) was used as a measure of turbidity resulting from bacterial growth. The MIC was taken as the concentration of ingredient required to inhibit growth so that the average change in absorbance during the incubation period was <0.2 A540.

MIC [2]	Compound	repellency against ants (Ant (Lasius niger); over first hour, wrt untreated surface, 1.0% in general purpose cleaner formulation)	repellency properties against ants (in words) (Ant (Lasius niger); summary statement)	repellency against mosquitoes ([1]; after 10 minutes, wrt untreated surface, 0.2 mg test material per square centimetre)	repellency properties against mosquitoes (in words) ([1]; summary statement)	activity against Staphylococcus aureus (in words) [2]
312 µg/mL (≈ 1590 µM)	CC(C)(C)C1CCCC(CCC=O)C1 (stereo not shown) [Compound 1, 3-(3-tert-butylcyclohexyl)propanal]	72%	excellent repellency properties	100%	excellent repellency properties	excellent activity against Staphylococcus aureus
312 µg/mL (≈ 1590 µM)	CC(C)C1CCCC(C(C)CC=O)C1 (stereo not shown) [Compound 2, 3-(3-isopropylcyclohexyl)butanal]	–	–	–	–	excellent activity against Staphylococcus aureus
5000 µg/mL (≈ 29700 µM)	CC(C=O)CC1CCCC(C)C1 (stereo not shown) [Compound 3, 2-methyl-3-(3-methylcyclohexyl)propanal]	–	–	–	–	–
> 5000 µg/mL	CC1CCCC(CCC=O)C1 (stereo not shown) [Compound 4, 3-(3-methylcyclohexyl)propanal]	–	–	–	–	–

From patent US20140142343A1, “Novel Fragrance Compounds” (Givaudan Nederland Services B.V., priority 2006, published 2014)
